Measured values from article PMC6661766, “Antimicrobial, antioxidant and cytotoxic evaluation of diazenyl chalcones along with insights to mechanism of interaction by molecular docking studies” (BMC Chemistry, 2019).
Converted amounts (≈) assume the structure as drawn. “And” between values parts separate entries of the source, which are not always exact repeats. Identical values can stand only once.

What was measured:
[1] = test system: B. subtilis; experiment: Antimicrobial serial tube dilution, MIC and MBC; type: cell-based, Bacillus subtilis MTCC 2063; conditions: Bacillus subtilis; for MIC: 24 h, read-out: B. subtilis MIC; for MBC: read-out: B. subtilis MBC
Procedure: (§1) The synthesized diazenyl chalcones (C18 to C27) and controls (dyes A and E, and chalcone) were assessed for their antimicrobial activity by estimation of MIC and MBC/MFC values. […] The stock solutions of the test compounds and standard drugs having a concentration of 1000 µg ml^−1 were prepared by dissolving the used compounds in DMSO. The nutrient broth/Sabouraud dextrose broth was used for the serial dilution of the test compounds and referenced drugs for bacterial and fungal cultures, respectively. […] The size of the final inoculum in each test tube was taken as 5 × 10^5 CFU ml^−1. The incubation of the test and standard compounds of varying concentrations was done for 24 h at 37 ± 2 °C (bacterial culture) and for 48 h at 37 ± 2 °C (C. albicans) and for 7 d at 25 ± 2 °C (A. fumigatus). The diazenyl chalcones (C18–C27), were further evaluated for their bactericidal/fungicidal activity by estimation of MBC/MFC values. […] For proper mixing of culture media, the plates were shaken gently followed by incubation at the predefined temperature and time as stated earlier, followed by the visual inspection of the plates for signs of microbial growth.

[2] = test system: S. aureus; experiment: Antimicrobial serial tube dilution, MIC and MBC; type: cell-based, Staphylococcus aureus MTCC 2901; conditions: Staphylococcus aureus; for MIC: 24 h, read-out: S. aureus MIC; for MBC: read-out: S. aureus MBC
Procedure: as §1

[3] = test system: HEK human embryonic kidney cells; experiment: MTT cytotoxicity assay, HEK; type: cell-based; conditions: 48 h
Procedure: (§2) The cell lines employed in the investigation were purchased from the National Centre for Cell Sciences (NCCS), Pune, India. The cell lines were cultured in DMEM fortified with 10% FBS, L-glutamine, sodium bicarbonate, and solution of antibiotics (streptomycin 100 μg ml^−1 + penicillin-100 U ml^−1). The culture of cell lines was stored under 5% CO2 incubation at 37 °C.
(§3) The compounds showing maximum activity (antimicrobial and antioxidant potential) were screened for cytotoxicity against A549 and HEK cell lines using MTT assay. Initially, 96-well microculture plate was seeded with 1 × 10^4 cells in 100 µl/well DMEM/MEM, supplemented with 10% FBS followed by incubation at a temperature of 37 °C for a period of 24 h under 5% CO2 atmosphere. After that, the test compounds and camptothecin were added to the cells to achieve a concentration of 10, 25, 50 and 100 µg. MTT reagent (10 µl) of concentration of 5 mg ml^−1 added to all the wells after the duration of 48 h. The plate was incubated further for 4 h followed by careful removal of supernatant from each well. To dissolve the formazan crystals, 100 µl of DMSO was added, and the ELISA reader was used to check the absorbance at 570 nm wavelength. In order to calculate the IC50 concentration, the following equation, i.e. A = Bx + C, was used. In this case, A = 50, while the values B and C values were obtained from the survival curve plot. This study was carried out in duplicate.

[4] = test system: E. coli; experiment: Antimicrobial serial tube dilution, MIC and MBC; type: cell-based, Escherichia coli MTCC 1652; conditions: for MIC / MBC: Escherichia coli; for MIC: 24 h, read-out: E. coli MIC, 24 h at 37 ± 2 °C; for MBC: read-out: E. coli MBC; for E. coli MIC: 24 h at 37 ± 2 °C
Procedure: as §1

[5] = test system: C. albicans; experiment: Antimicrobial serial tube dilution, MIC and MFC; type: cell-based, Candida albicans MTCC 227; conditions: Candida albicans; for MIC: 48 h, read-out: C. albicans MIC; for MFC: read-out: C. albicans MFC
Procedure: as §1

[6] = test system: S. typhi; experiment: Antimicrobial serial tube dilution, MIC and MBC; type: cell-based, Salmonella typhi MTCC 3216; conditions: Salmonella enterica, TYPHI; for MIC: 24 h, read-out: S. typhi MIC; for MBC: read-out: S. typhi MBC
Procedure: as §1

[7] = test system: A. fumigatus; experiment: Antimicrobial serial tube dilution, MIC and MFC; type: cell-based, Aspergillus fumigatus MTCC 2584; conditions: Aspergillus fumigatus; for MIC: 168 h, read-out: A. fumigatus MIC; for MFC: read-out: A. fumigatus MFC
Procedure: as §1

[8] = test system: B. cereus; experiment: Antimicrobial serial tube dilution, MIC and MBC; type: cell-based, Bacillus cereus MTCC 1305; conditions: Bacillus cereus; for MIC: 24 h, read-out: B. cereus MIC; for MBC: read-out: B. cereus MBC
Procedure: as §1

[9] = test system: A549 human lung cancer cell line; experiment: MTT cytotoxicity assay, A549; type: cell-based; conditions: Homo sapiens, A549; MTT, 48 h
Procedure: as §2, §3

[10] = DPPH scavenging antioxidant assay; conditions: for log IC50 DPPH: Fig. 1
Procedure: The derivatives (C18–C27) were assessed for their antioxidant potential in the presence of the stable free radical DPPH using ascorbic acid as the standard compound [36, 37]. […] The total volume of 200 µl was used in each well for each concentration of the test and standard drug containing 0.004 µg DPPH. The assay was performed in triplicate at all concentrations of each sample and standard compound. DPPH solutions in methanol at the same concentration without test drugs were used as the control. Each concentration of the sample and standard has a different blank. To minimize evaporation, the plate was covered with the lid and wrapped in aluminium foil and kept in the dark place in order to protect the DPPH radical from degradation by light and left for 30 min. After 30 min of incubation, the plate was kept in ELISA reader to measure the absorbance values at 517 nm. The experiment was performed in triplicate. The antioxidant activity of each sample was then calculated as per cent inhibition of DPPH according to the following equation: %decolourationofDPPH=ControlAbs-SampleAbs×100/ControlAbs

SMILES	MIC [1] [µg/mL]	MBC [1] [µg/mL]	MIC [2] [µg/mL]	MBC [2] [µg/mL]	IC50 [3] [µg/mL]	MIC [4] [µg/mL]	MBC [4] [µg/mL]	MIC [5] [µg/mL]	MFC [5] [µg/mL]	melting point [°C]	MIC [6] [µg/mL]	MBC [6] [µg/mL]	MIC [7] [µg/mL]	MFC [7] [µg/mL]	MIC [8] [µg/mL]	MBC [8] [µg/mL]	IC50 [9] [µg/mL]	IC50 DPPH [10]	% inhibition of DPPH ([10]; 1.56 µg ml^−1) [%]	% inhibition of DPPH ([10]; 3.12 µg ml^−1) [%]	other results
O=C(/C=C\c1ccc(Cl)cc1Cl)c1cccc(N=Nc2cccc(Cl)c2Cl)c1O [Compound C-19, (2Z)-3-(2,4-Dichlorophenyl)-1-(3-((2,3-dichlorophenyl)diazenyl)-2-hydroxyphenyl)prop-2-en-1-one]	15.6 (≈ 33.5 µM)	62.5 (≈ 134 µM)	125 (≈ 268 µM)	125 (≈ 268 µM)	221 ± 3.23 (≈ 474 µM)	500 (≈ 1070 µM)	500 (≈ 1070 µM)	125 (≈ 268 µM)	125 (≈ 268 µM)	112 to 114	125 (≈ 268 µM)	125 (≈ 268 µM)	125 (≈ 268 µM)	250 (≈ 536 µM)	500 (≈ 1070 µM)	500 (≈ 1070 µM)	140.2 ± 1.11 (≈ 301 µM)	> 100 µg/mL	6.64	7.71	% inhibition of DPPH ([10]; 6.25 µg ml^−1): 9.39%; % inhibition of DPPH ([10]; 12.5 µg ml^−1): 10.87%; % inhibition of DPPH ([10]; 25 µg ml^−1): 12.99%; % inhibition of DPPH ([10]; 50 µg ml^−1): 15.22%; % inhibition of DPPH ([10]; 100 µg ml^−1): 24.49%
O=Cc1ccc(/C=C\C(=O)c2ccc(N=Nc3c(O)cccc3O)cc2)cc1 [Compound C-23, 4-((1Z)-3-(4-((2,6-Dihydroxyphenyl)diazenyl)phenyl)-3-oxoprop-1-en-1-yl)benzaldehyde]	62.5 (≈ 168 µM)	62.5 (≈ 168 µM)	125 (≈ 336 µM)	125 (≈ 336 µM)	190.1 ± 1.56 (≈ 511 µM)	7.81 to 15.6 (≈ 21 to 41.9 µM)	15.6 (≈ 41.9 µM)	125 (≈ 336 µM)	125 (≈ 336 µM)	182 to 184	31.2 (≈ 83.9 µM)	62.5 (≈ 168 µM)	62.5 (≈ 168 µM)	125 (≈ 336 µM)	62.5 (≈ 168 µM)	62.5 (≈ 168 µM)	171 ± 2.46 (≈ 460 µM)	17.82 µg/mL (≈ 47.9 µM)	19.03	25.53	E. coli MIC [4]: 15.62 µg/mL; % inhibition of DPPH ([10]; 6.25 µg ml^−1): 35.86%; % inhibition of DPPH ([10]; 12.5 µg ml^−1): 50.45%; % inhibition of DPPH ([10]; 25 µg ml^−1): 70.53%; % inhibition of DPPH ([10]; 50 µg ml^−1): 83.17%; % inhibition of DPPH ([10]; 100 µg ml^−1): 95.68%; log IC50 DPPH [10]: 1.251
COc1ccccc1/C=C\C(=O)c1ccc(N=Nc2c(O)cccc2O)cc1 [Compound C-27, (2Z)-1-(4-((2,6-Dihydroxyphenyl)diazenyl)phenyl)-3-(2-methoxyphenyl)prop-2-en-1-one]	15.6 (≈ 41.7 µM)	31.2 (≈ 83.5 µM)	62.5 (≈ 167 µM)	62.5 (≈ 167 µM)	330.6 ± 2.9 (≈ 883 µM)	7.81 to 15.6 (≈ 20.9 to 41.7 µM)	15.6 (≈ 41.7 µM)	62.5 (≈ 167 µM)	62.5 (≈ 167 µM)	320 to 322	62.5 (≈ 167 µM)	62.5 (≈ 167 µM)	125 (≈ 334 µM)	125 (≈ 334 µM)	125 (≈ 334 µM)	125 (≈ 334 µM)	124 ± 2.56 (≈ 330 µM)	7.112 µg/mL and 7.12 µg/mL	26.13	34.18	E. coli MIC [4]: 7.81 µg/mL; % inhibition of DPPH ([10]; 6.25 µg ml^−1): 54.67%; % inhibition of DPPH ([10]; 12.5 µg ml^−1): 82.21%; % inhibition of DPPH ([10]; 25 µg ml^−1): 93.45%; % inhibition of DPPH ([10]; 50 µg ml^−1): 95.71%; % inhibition of DPPH ([10]; 100 µg ml^−1): 96.62%; log IC50 DPPH [10]: 0.8520
